Source: patent US8729073B2, “5-methyl-1-(naphthalen-2-yl)-1H-pyrazole derivatives and their use in potentiating the effect of opioid analgesics” (Laboratorios Del Dr. Esteve, S.A., priority 2010, dated 2014)
Entries after “also recorded” stand apart in the source; their conditions may differ.

Tests used:
morphine analgesia = experiment: Tail-flick test in mice, modulation of morphine analgesia; format: in vivo; details: male CD1 mice; Example n^o 1 5-20 mg/kg i.p. coadministered with fixed dose of morphine 2 mg/kg s.c.; 30 min post-administration; FIG. 3
[1] = test system: capsaicin-induced neuropathic pain; experiment: Effect on capsaicin in development of mechanical allodynia (von Frey filaments); format: in vivo; details: mice, test compound given before 1 μg capsaicin (1% DMSO) injected into paw, FIG. 2
Protocol: Effect on Capsaicin in Development of Mechanical Allodynia
This model uses the von-Frey Filaments and is a model to test the effects or symptoms of neuropathic pain, allodynia etc.
Interest of the model: • The injection of 1 μg of capsaicin to experimental animals produces acute pain followed by hyperalgesia/allodynia • The mechanisms involved in capsaicin-induced acute pain and hyperalgesia are relatively well known (mainly activation of peripheral nociceptors and sensitization of spinal cord neurons, respectively)
After habituation mice were according to FIG. 1 first treated with the test-compound (or solvent in controls). Then 1 μg capsaicin (1% DMSO) is injected into their paw resulting in developing pain in the effected paw. The effected paw is then treated with a mechanical stimulus and the latency time before the paw is withdrawn is measured.

How did the “potentiation of morphine analgesia (% Analgesia, tail-flick latency)” value (morphine analgesia) turn out when `Cc1cc(OCCN2CCOCC2=O)nn1-c1ccc2ccccc2c1` [Example n^o 1, 4-(2-(5-methyl-1-(naphthalen-2-yl)-1H-pyrazol-3-yloxy)ethyl)morpholin-3-one] was run?
The value was “enhances the analgesic effect of a fixed dose of morphine; also recorded: dose-dependently increased the analgesic efficacy of morphine”.

What about the “analgesia in capsaicin-induced neuropathic pain (latency time before the paw is withdrawn, mechanical stimulus)” value [1] of the same compound?
Its value is “dose dependency of the treatment with the compound of example 1 showing analgesia in capsaicin-induced neuropathic pain”.
